Assay results reported in the CheMixHub viscosity set.
± gives the uncertainty stated by the source.

Experiment: xn = mol fraction of the nth substance listed

Q: Which results are given for `ClC(Cl)(Cl)Cl` + CCOC(C)=O?
A: viscosity (298 K, 101.3 kPa, x1 = 0.1581): 0.517 ± 0.007 mPa·s; viscosity (298 K, 101.3 kPa, x1 = 0.3048): 0.57 ± 0.007 mPa·s; viscosity (298 K, 101.3 kPa, x1 = 0.501): 0.644 ± 0.007 mPa·s; viscosity (298 K, 101.3 kPa, x1 = 0.6498): 0.713 ± 0.008 mPa·s; viscosity (298 K, 101.3 kPa, x1 = 0.8438): 0.808 ± 0.008 mPa·s; viscosity (303.15 K, 101.3 kPa, x2 = 0.1014): 0.758 ± 0.0049 mPa·s; viscosity (303.15 K, 101.3 kPa, x2 = 0.1972): 0.6991 ± 0.0046 mPa·s; viscosity (303.15 K, 101.3 kPa, x2 = 0.2976): 0.6483 ± 0.0043 mPa·s; viscosity (303.15 K, 101.3 kPa, x2 = 0.394): 0.6016 ± 0.0041 mPa·s; viscosity (303.15 K, 101.3 kPa, x2 = 0.4966): 0.5603 ± 0.0039 mPa·s; viscosity (303.15 K, 101.3 kPa, x2 = 0.5986): 0.5236 ± 0.0037 mPa·s; viscosity (303.15 K, 101.3 kPa, x2 = 0.6989): 0.4883 ± 0.0035 mPa·s; viscosity (303.15 K, 101.3 kPa, x2 = 0.802): 0.4572 ± 0.0033 mPa·s; viscosity (303.15 K, 101.3 kPa, x2 = 0.898): 0.4289 ± 0.0031 mPa·s; viscosity (318 K, 101.3 kPa, x1 = 0.1518): 0.4229 ± 0.017 mPa·s; viscosity (318 K, 101.3 kPa, x1 = 0.3052): 0.4655 ± 0.018 mPa·s; viscosity (318 K, 101.3 kPa, x1 = 0.5035): 0.5279 ± 0.02 mPa·s; viscosity (318 K, 101.3 kPa, x1 = 0.6517): 0.5797 ± 0.022 mPa·s; viscosity (318 K, 101.3 kPa, x1 = 0.854): 0.6674 ± 0.025 mPa·s

Q: With `CCN(CC)CC` + CCc1ccccc1 as the molecule, how does the viscosity (303.15 K, 101 kPa, x1 = 0.01075) read?
A: Its viscosity is 0.5914 ± 0.0052 mPa·s.

Q: And the viscosity (303.15 K, 101 kPa, x1 = 0.02054)?
A: Its viscosity is 0.5873 ± 0.0052 mPa·s.

Q: And the viscosity (303.15 K, 101 kPa, x1 = 0.03021)?
A: Its viscosity is 0.5822 ± 0.0051 mPa·s.

Q: What about the viscosity (303.15 K, 101 kPa, x1 = 0.04405) of the same molecule?
A: Its viscosity is 0.5755 ± 0.0051 mPa·s.

Q: And the viscosity (303.15 K, 101 kPa, x1 = 0.05034)?
A: Its viscosity is 0.5715 ± 0.005 mPa·s.

Q: And the viscosity (303.15 K, 101 kPa, x1 = 0.06324)?
A: The viscosity was 0.5666 ± 0.0051 mPa·s.

Q: And the viscosity (303.15 K, 101 kPa, x1 = 0.07098)?
A: The viscosity was 0.5623 ± 0.005 mPa·s.

Q: And the viscosity (303.15 K, 101 kPa, x1 = 0.0794)?
A: The viscosity was 0.5569 ± 0.005 mPa·s.

Q: What about the viscosity (303.15 K, 101 kPa, x1 = 0.09408) of the same molecule?
A: Its viscosity is 0.5505 ± 0.0048 mPa·s.

Q: What about the viscosity (303.15 K, 101 kPa, x1 = 0.1003) of the same molecule?
A: Its viscosity is 0.5476 ± 0.0048 mPa·s.

Q: For `[Br-].[Li+]` + CN1CCCC1=O, which viscosity (298.15 K, 101 kPa, x1 = 0.02596) is on record?
A: Its viscosity is 2.385 ± 0.02 mPa·s.

Q: And the viscosity (298.15 K, 101 kPa, x1 = 0.02626)?
A: Its viscosity is 2.359 ± 0.02 mPa·s.

Q: What about the viscosity (298.15 K, 101 kPa, x1 = 0.02735) of the same molecule?
A: Its viscosity is 2.37 ± 0.02 mPa·s.

Q: And the viscosity (298.15 K, 101 kPa, x1 = 0.05088)?
A: The viscosity was 3.13 ± 0.024 mPa·s.

Q: What about the viscosity (298.15 K, 101 kPa, x1 = 0.05114) of the same molecule?
A: The viscosity was 3.124 ± 0.024 mPa·s.

Q: What about the viscosity (298.15 K, 101 kPa, x1 = 0.05202) of the same molecule?
A: Its viscosity is 3.192 ± 0.024 mPa·s.

Q: What about the viscosity (298.15 K, 101 kPa, x1 = 0.07505) of the same molecule?
A: The viscosity was 4.349 ± 0.032 mPa·s.

Q: And the viscosity (298.15 K, 101 kPa, x1 = 0.07536)?
A: Its viscosity is 4.344 ± 0.032 mPa·s.

Q: And the viscosity (298.15 K, 101 kPa, x1 = 0.07626)?
A: The viscosity was 4.329 ± 0.031 mPa·s.

Q: For `ClC(Cl)(Cl)Cl` + CN(C)C=O, which viscosity (298 K, 101.3 kPa, x1 = 0.129) is on record?
A: The viscosity was 0.879 ± 0.011 mPa·s.

Q: And the viscosity (298 K, 101.3 kPa, x1 = 0.2556)?
A: Its viscosity is 0.918 ± 0.011 mPa·s.

Q: And the viscosity (298 K, 101.3 kPa, x1 = 0.4437)?
A: The viscosity was 0.958 ± 0.011 mPa·s.

Q: And the viscosity (298 K, 101.3 kPa, x1 = 0.595)?
A: The viscosity was 0.966 ± 0.011 mPa·s.

Q: And the viscosity (298 K, 101.3 kPa, x1 = 0.8073)?
A: Its viscosity is 0.949 ± 0.01 mPa·s.

Q: And the viscosity (318 K, 101.3 kPa, x1 = 0.1208)?
A: Its viscosity is 0.6789 ± 0.025 mPa·s.

Q: And the viscosity (318 K, 101.3 kPa, x1 = 0.2535)?
A: Its viscosity is 0.7118 ± 0.026 mPa·s.

Q: What about the viscosity (318 K, 101.3 kPa, x1 = 0.4423) of the same molecule?
A: The viscosity was 0.745 ± 0.027 mPa·s.

Q: What about the viscosity (318 K, 101.3 kPa, x1 = 0.5937) of the same molecule?
A: Its viscosity is 0.7608 ± 0.028 mPa·s.

Q: And the viscosity (318 K, 101.3 kPa, x1 = 0.8235)?
A: Its viscosity is 0.7506 ± 0.027 mPa·s.

Q: With `CCCC(C)=O` + CN(C)c1ccccc1 as the molecule, how does the viscosity (303.15 K, 101 kPa, x2 = 0.0756) read?
A: Its viscosity is 0.574 ± 0.024 mPa·s.

Q: And the viscosity (303.15 K, 101 kPa, x2 = 0.1362)?
A: The viscosity was 0.669 ± 0.027 mPa·s.

Q: And the viscosity (303.15 K, 101 kPa, x2 = 0.2003)?
A: Its viscosity is 0.76 ± 0.029 mPa·s.

Q: What about the viscosity (303.15 K, 101 kPa, x2 = 0.2795) of the same molecule?
A: The viscosity was 0.875 ± 0.033 mPa·s.

Q: And the viscosity (303.15 K, 101 kPa, x2 = 0.3412)?
A: The viscosity was 0.941 ± 0.035 mPa·s.

Q: What about the viscosity (303.15 K, 101 kPa, x2 = 0.4101) of the same molecule?
A: Its viscosity is 1.012 ± 0.038 mPa·s.

Q: And the viscosity (303.15 K, 101 kPa, x2 = 0.4921)?
A: The viscosity was 1.072 ± 0.039 mPa·s.

Q: And the viscosity (303.15 K, 101 kPa, x2 = 0.5741)?
A: The viscosity was 1.112 ± 0.041 mPa·s.

Q: What about the viscosity (303.15 K, 101 kPa, x2 = 0.6512) of the same molecule?
A: Its viscosity is 1.134 ± 0.041 mPa·s.

Q: And the viscosity (303.15 K, 101 kPa, x2 = 0.7214)?
A: The viscosity was 1.143 ± 0.042 mPa·s.

Q: And the viscosity (303.15 K, 101 kPa, x2 = 0.7914)?
A: The viscosity was 1.148 ± 0.042 mPa·s.

Q: And the viscosity (303.15 K, 101 kPa, x2 = 0.8512)?
A: The viscosity was 1.15 ± 0.042 mPa·s.

Q: What about the viscosity (303.15 K, 101 kPa, x2 = 0.9214) of the same molecule?
A: Its viscosity is 1.159 ± 0.042 mPa·s.

Q: And the viscosity (308.15 K, 101 kPa, x2 = 0.0756)?
A: The viscosity was 0.525 ± 0.022 mPa·s.

Q: What about the viscosity (308.15 K, 101 kPa, x2 = 0.1362) of the same molecule?
A: The viscosity was 0.611 ± 0.025 mPa·s.

Q: What about the viscosity (308.15 K, 101 kPa, x2 = 0.2003) of the same molecule?
A: The viscosity was 0.7 ± 0.028 mPa·s.

Q: And the viscosity (308.15 K, 101 kPa, x2 = 0.2795)?
A: The viscosity was 0.803 ± 0.031 mPa·s.

Q: And the viscosity (308.15 K, 101 kPa, x2 = 0.3412)?
A: The viscosity was 0.873 ± 0.033 mPa·s.

Q: What about the viscosity (308.15 K, 101 kPa, x2 = 0.4101) of the same molecule?
A: The viscosity was 0.94 ± 0.035 mPa·s.

Q: And the viscosity (308.15 K, 101 kPa, x2 = 0.4921)?
A: The viscosity was 1.001 ± 0.037 mPa·s.

Q: And the viscosity (308.15 K, 101 kPa, x2 = 0.5741)?
A: The viscosity was 1.041 ± 0.038 mPa·s.

Q: What about the viscosity (308.15 K, 101 kPa, x2 = 0.6512) of the same molecule?
A: Its viscosity is 1.063 ± 0.039 mPa·s.

Q: And the viscosity (308.15 K, 101 kPa, x2 = 0.7214)?
A: Its viscosity is 1.071 ± 0.039 mPa·s.

Q: What about the viscosity (308.15 K, 101 kPa, x2 = 0.7914) of the same molecule?
A: Its viscosity is 1.074 ± 0.039 mPa·s.

Q: What about the viscosity (308.15 K, 101 kPa, x2 = 0.8512) of the same molecule?
A: Its viscosity is 1.076 ± 0.04 mPa·s.

Q: What about the viscosity (308.15 K, 101 kPa, x2 = 0.9214) of the same molecule?
A: The viscosity was 1.085 ± 0.04 mPa·s.
